Measured values: a melting point compilation (Tetko et al.; mined from patent text by program, amines drawn as free bases though some values may be those of a salt)

For `O=C1CC(c2cccc(-n3ccnn3)c2)=Nc2ccc(C#Cc3ccc(F)cc3)cc2N1`, the melting point was 246 to 248 °C.
`CC(C)CNCc1cc2cc(NC(=O)c3ccc(OCC4CCOC4)cc3)ccc2n1C` (centres undefined) showed a melting point of 125 to 126 °C.
In the case of `Cc1cc2c(c(C)c1C)C(c1ccc(C(C)C)cc1)CO2` (centres undefined), the melting point is reported as 70 to 71 °C.
For `COCc1c(C(=O)OC)c2cc(O)ccc2n1C`, the melting point was 168 to 170 °C.
With `O=C(O)Cc1oc2ccc(Cl)cc2c1-c1ccccc1` the melting point was 194 to 195 °C.
With `Cc1ccccc1NC(=O)c1cc([N+](=O)[O-])ccc1NC(=O)CF` the melting point was 238 to 239 °C.
Work on `CC(C)(C)OC(=O)NC1C2CN(CC(O)(c3ccccc3)c3ccccc3)CC21` (centres undefined) yielded a melting point of 127 to 131 °C.
In the case of `Cc1c(Cl)ccc(NC(=O)CN2C(=O)c3ccccc3C2=O)c1Cl`, the melting point is reported as 245 to 246 °C.
Molecule `CN1Cc2c(/C=C\Cl)ncn2-c2cccc(Cl)c2C1=O` has a melting point of 205 to 207 °C.
With `Cn1nc(-c2nc(C#N)c(N)nc2-c2ccccc2)ccc1=O` the melting point was > 250 °C.
Molecule `COC(=O)c1ccc(O)c(N)c1C(=O)OC` has a melting point of 112 to 113 °C.
In the case of `COc1cc(C(Cn2ccnc2)Sc2ccc(C(=O)O)cc2)cc(OC)c1OC` (centres undefined), the melting point is reported as 94 to 97 °C.
Molecule `Cc1ccc(N(C)S(=O)(=O)c2cccs2)c2[nH]c(-c3nccs3)cc12` has a melting point of 159 to 160 °C.
With `CC(C)(C)OC(=O)N[C@@H]1C[C@H](CO)[C@@H](OC(=O)c2ccccc2)[C@H]1OC(=O)c1ccccc1` the melting point was 78 to 79 °C.
`O=C(O)C(=O)c1ccc(OC/C=C/c2ccccc2)cc1` gave a melting point of 103 to 105 °C.
`N#CCC(CC#N)c1cccc(Cl)c1Cl` showed a melting point of 76 to 78 °C.
Molecule `NC(C(=O)N(N)c1ccc2ccccc2c1)c1ccccc1` (centres undefined) has a melting point of 176 to 178 °C.
`CS(=O)(=O)Nc1ccc(C=CC(=O)O)cc1` showed a melting point of 218 °C.
`COc1cccc(C=CCN2CCc3nc(N)sc3CC2)c1OC` showed a melting point of 87 °C.
In the case of `c1ccc(-c2nnc3cc(-c4ccsc4)c(OCc4ncn[nH]4)nn23)cc1`, the melting point is reported as 264 to 266 °C.
Work on `CCCCCCCCCN(C[C@H]1CC[C@H](CN(CCCCCCCCC)C(=O)Nc2ccc(N(C)C)cc2)CC1)C(=O)Nc1ccc(N(C)C)cc1` yielded a melting point of 96 to 98 °C.
`O=C(O)c1cc(SCCO)ccc1O` gave a melting point of 136 °C.
`Cc1oc(-c2ccccc2)nc1COc1ccc(COc2ncccc2C#N)cc1` showed a melting point of 119 to 120 °C.
`CC1(C)CCC(C)(C)c2cc(-c3cc(-c4ccc(C(=O)O)cc4)ccc3OCCCNC3CC3)ccc21` gave a melting point of 192 °C.
With `CS(=O)(=O)c1cc(C(N)Nc2ccccc2C(=O)Nc2cccc(C(F)(F)F)c2)ccn1` (centres undefined) the melting point was 214 °C.
Work on `CCC(=O)Nc1cc(-c2c(-c3ccc(Cl)cc3)nc3cccnn23)ccn1` yielded a melting point of 204 to 205 °C.
Molecule `CCCSC1(C(F)(F)F)C=NC(=O)Nc2ccc(Cl)cc21` (centres undefined) has a melting point of 156 to 157 °C.
In the case of `CCOC(=O)C(=O)Nc1c(Cl)cc(Cl)c(Cl)c1O`, the melting point is reported as 178 °C.
Work on `O=C(CCCCl)Nc1cccc(-c2ccnc3c(C(=O)c4cccs4)cnn23)c1` yielded a melting point of 97 to 100 °C.
For `CCC1(CCCN2CCc3sccc3C2)C(=O)Nc2ccccc21` (centres undefined), the melting point was 130 to 132 °C.
Work on `O=C1CC(OCc2ccccc2)C2COC1O2` (centres undefined) yielded a melting point of 118 to 119 °C.
In the case of `C[C@@H]1NC(=O)c2cccc(N)c2NC1=O`, the melting point is reported as 320 °C.
Work on `Cc1c(OCC(F)(F)F)ccnc1CSc1nc2ccccc2[nH]1` yielded a melting point of 142 to 144 °C.
Work on `CCC(CO)Nc1cc(C)nc(Oc2c(C)cc(Cl)cc2C)c1CO` (centres undefined) yielded a melting point of 133 to 135 °C.
Work on `CC(=O)SCC(C)C(=O)N(C(C)C(=O)O)C1CCc2ccccc21` (centres undefined) yielded a melting point of 133 to 137 °C.
Work on `COc1ccc2nc(-c3ccc(OC)c(F)c3)cc(O)c2c1` yielded a melting point of 326 to 328 °C.
`OCc1ccc2ccccc2c1OCc1ccccc1` showed a melting point of 85 to 87 °C.
Work on `COCCn1cc(C=O)c(-c2ccc([N+](=O)[O-])o2)n1` yielded a melting point of 137 to 138 °C.
`COc1ccc(OCC(O)CCCl)cc1` (centres undefined) showed a melting point of 65 to 68 °C.
In the case of `Nc1ccc(NCCCNc2cccc3c2C(=O)c2ccccc2C3=O)cc1`, the melting point is reported as 183 to 185 °C.
`CCOC(=O)Cc1cc2ccc(O)cc2oc1=O` gave a melting point of 168 to 170 °C.
Molecule `CCOC(=O)C(OCc1ccc(-c2ccc(Cl)cc2)cc1)c1ccccc1` (centres undefined) has a melting point of 50 to 51 °C.
Work on `Cc1ccc([C@@H]2CO[C@@H](c3ccc(C)cc3)CO2)cc1` yielded a melting point of 200 °C.
In the case of `O=C(O)CCNC(=O)C(=Cc1cccc2ccccc12)CS`, the melting point is reported as 133 °C.
Work on `CC(C)(C)c1cc(CCc2ccccc2NC(=O)NC2CCC(C(C)(C)C)CC2)cc(C(C)(C)C)c1O` (centres undefined) yielded a melting point of 206 to 208 °C.
Molecule `Cc1c(C(N)=O)nnn1Cc1c(F)cccc1F` has a melting point of 208 to 210 °C.
With `COC(=O)CCC1=C(C)C2=NC1(CCC(=O)OC)C(C)C1(CCC#N)NC(C)(C=C3C=CC(=N3)C=c3ccc([nH]3)=C2)C(CCC#N)=C1C` (centres undefined) the melting point was 201 to 205 °C.
Work on `O=C(NCCN1CCOCC1)c1ccc2cc(C(=O)O)[nH]c2c1` yielded a melting point of 227 to 233 °C.
With `COC(=O)C1=C(C)NC(C)=C(C(=O)OCCN)C1c1cccc2c(=O)c(C)c(-c3ccccc3)oc12` (centres undefined) the melting point was 188 to 192 °C.
In the case of `COc1ccc(S(=O)(=O)N2C(=O)C(O[Si](C)(C)C)(c3ccccc3OC)c3cc(Cl)c(C)cc32)c(OC)c1` (centres undefined), the melting point is reported as 190 to 191 °C.
For `CCCCOc1ccc2[nH]c(C(=O)O)cc2c1`, the melting point was 153 °C.
`Cc1c(C)c2c(c(C)c1N)CC(C)(CN1CCC(CCCc3ccccc3)CC1)O2` (centres undefined) showed a melting point of 79 to 80 °C.
Molecule `CCCNC(=O)CCn1ccc(=O)c(OCc2ccccc2)c1C` has a melting point of 146 to 147 °C.
Work on `CCC#CCOc1cc2c(cc1C=O)C(C)(C)CCC2(C)C` yielded a melting point of 90 to 91 °C.
In the case of `Cc1ccc2c(c1)c(N1CCN(C(=O)c3ccco3)CC1)c(C#N)c(=O)n2Cc1ccccc1`, the melting point is reported as 146 °C.
With `O=C1c2nc3ccccn3c2C(=O)c2cccc(F)c21` the melting point was > 260 °C.
Molecule `CCC(=O)Cn1c(C)cn(N=Cc2cccnc2)c1=O` has a melting point of 183 to 184 °C.
Molecule `C=C(C)C1CCC2C3CC(=O)C4=CC(=O)CCC4(C)C3CCC12C` (centres undefined) has a melting point of 148 to 150 °C.
Work on `O=C(O)c1cccc2c1CC(N(CCCc1c[nH]c3c(F)cc(F)cc13)C1CCC1)CO2` (centres undefined) yielded a melting point of 130 to 131 °C.
In the case of `NC(=O)[C@@H]1[C@H](Nc2ccnc3[nH]c(-c4ccc(N5CCOCC5)cc4)nc23)[C@H]2C=C[C@@H]1C2`, the melting point is reported as 240 to 244 °C.
`CCOC(=O)C1=C(COCCN=[N+]=[N-])NC(C)=C(C(=O)OC)C1c1cccc(C(F)(F)F)c1Cl` (centres undefined) showed a melting point of 143 to 145 °C.
In the case of `CCC(COCc1ccc(C#N)cc1)n1cnc2c(N)nc3ccccc3c21` (centres undefined), the melting point is reported as 160 to 161 °C.
`CS(=O)(=O)Nc1ccc(OC2CCCC2)cc1` showed a melting point of 140 to 142 °C.
`CCCCc1nc(C(C)(C)O)c(C(=O)O)n1Cc1ccc(-c2ccccc2C(=O)OC(C)(C)C)cc1` showed a melting point of 158 to 159 °C.
For `CCOC(=O)Nc1c(-c2ccccc2)c2cc(Cl)ccc2n1C`, the melting point was 123 to 124 °C.
In the case of `CC(=O)O/N=C1\CCc2ccccc2C1=Cc1ccc(S(C)(=O)=O)cc1`, the melting point is reported as 70 to 73 °C.
In the case of `NCC1Cc2cc(C(F)(F)F)cc(-c3ccc(Cl)cc3)c2O1` (centres undefined), the melting point is reported as > 250 °C.
`Nc1cccc(-c2ccc(CCN3CCC(N)CC3)cc2)n1` showed a melting point of 190 to 195 °C.
Molecule `O=C(O)COc1ccc2c(-c3cccc(F)c3F)noc2c1Cl` has a melting point of 183 to 187 °C.
`C=C1CCc2sccc2C1=O` showed a melting point of 47 to 49 °C.
Work on `Cc1n[nH]c2c1C(=O)CC(C)(C)C2` yielded a melting point of 103 to 104 °C.
`COC(=O)C(C)c1cccc2c(=O)c3ccccc3ccc12` (centres undefined) gave a melting point of 37 to 39 °C.
In the case of `CC(C)Cc1ccc2ccc(N)nc2n1`, the melting point is reported as 125 to 127 °C.
Molecule `CCOC(=O)C(NC(=O)CNC(=O)OCc1ccccc1)C(=O)OCC` has a melting point of 94.5 to 95.5 °C.
`O=C1c2ccccc2C(=O)N1C1CCCn2c1nc(-c1ccncc1)cc2=O` (racemic) gave a melting point of 211 to 213 °C.
`Clc1ccnc2[nH]c(CCc3ccccc3)cc12` gave a melting point of 159 to 160 °C.
For `CC(=O)Nc1ccccc1NS(=O)(=O)c1cc(C(=O)O)cc([N+](=O)[O-])c1Oc1ccccc1`, the melting point was 224 to 226 °C.
In the case of `c1cc2ccsc2cn1`, the melting point is reported as < 50 °C.
For `C#CCSc1nc(Cl)cc(NCc2ccc(Cl)cc2)n1`, the melting point was 85 to 88 °C.
`COc1cc2c(cn1)OCC21C(=O)Nc2ccccc21` (centres undefined) gave a melting point of 231 to 232 °C.
In the case of `CCc1ccc(C2CCC(c3ccc(Oc4ccc([N+](=O)[O-])cc4)cc3)(c3ccc(Oc4ccc([N+](=O)[O-])cc4)cc3)CC2)cc1`, the melting point is reported as 204 to 205 °C.
With `CC(=O)N(CCc1nc(-c2ccccc2)oc1C)Cc1ccc(C[C@@H](C(=O)O)n2cccc2)cc1` the melting point was 82 to 87 °C.
In the case of `Cc1cc(Cl)ccc1-n1cnnc1C(F)(F)F`, the melting point is reported as 90 °C.
With `CC(=O)NCc1ccc(CN2CCN(c3ccc(F)cc3)CC2)cc1Cl` the melting point was 141 to 142 °C.
Work on `CC(=O)OCc1ccc(N(c2ccccc2)c2ccc(C=O)cc2)cc1` yielded a melting point of 86 to 89 °C.
`CN(CCO)c1ccc([N+](=O)[O-])cn1` gave a melting point of 83 to 84 °C.
Molecule `O=S(=O)(Nc1ccc(OCc2ccc3ccccc3n2)cc1)c1c(F)c(F)c(F)c(F)c1F` has a melting point of 170 to 178 °C.
`O=C1N(CCN2CCCC2)CCN1c1ccc(-c2nnc(CSCCOc3ccccc3)o2)cc1` showed a melting point of 125 to 129 °C.
With `CC(C)c1nc(C#N)c(C#N)[nH]1` the melting point was 146 to 149 °C.
`Cc1ccc(C(SCCN(C)CCCCN=C(NC#N)NCCSCc2csc(NC(=N)N)n2)c2ccccc2)cc1` (centres undefined) showed a melting point of 134 to 140 °C.
With `O=C(CN(CCOCc1ccccc1)Cc1ccccc1)Nc1ccc2c3c(nn2CCN(CCOCc2ccccc2)Cc2ccccc2)-c2cc(O)ccc2Oc13` the melting point was 106 to 110 °C.
With `O=C(NCc1c[nH]c(=S)n1[C@H]1CCc2c(F)cc(F)cc2C1)c1ccccc1` the melting point was 260 to 261 °C.
In the case of `CCC(=O)OCCSCC(=O)NC/C=C\COc1cc(CN2CCCCC2)ccn1`, the melting point is reported as 99 to 106 °C.
Molecule `CCOC(=O)c1c(C)n(C)cc(-c2ccc(Cl)cc2)c1=O` has a melting point of 200 to 201 °C.
Molecule `CNC(=O)[C@H](Cc1ccc(OC)cc1)NC(=O)[C@H](CC(C)C)N[C@H](CCC(=O)NCc1ccccc1)C(=O)O` has a melting point of 104 to 108 °C.
For `COc1nnc2n1C=Cc1cc(Cl)ccc1C2`, the melting point was 177 to 178 °C.
`CS(=O)(=O)c1cc(C(=O)N=C(N)N)ccc1C1C=CCC1` (centres undefined) gave a melting point of 188 to 190 °C.
`COc1cc2cc(C(=O)N3CC(CCl)c4c3cc(OCc3ccccc3)c3ncccc43)[nH]c2c(OC)c1OC` (centres undefined) gave a melting point of 182 to 184 °C.
In the case of `Cc1nc2c(OCc3c(Cl)ccc(S(=O)(=O)N4CCC[C@H]4C(=O)NCc4ccc(C=NN)cc4)c3Cl)cccn2c1C`, the melting point is reported as 144 to 146 °C.
